# Laboratory results from patent US10428028B2, “HDAC inhibitors” (BIOMARIN PHARMACEUTICAL INC., priority 2013, dated 2019).
# Tests used:
# HDAC1 = HDAC1 (Homo sapiens (Human), UniProt Q13547); assay: HDAC enzyme inhibition assay (Fluor-de-Lys), HDAC1; assay type: biochemical; conditions: 2 hours pre-incubation
# Method: (§1) The HDAC activity inhibition assay was performed as follows to determine the ability of a test compound to inhibit HDAC enzymatic activity. Serial dilutions of HDAC inhibitors were prepared in HDAC assay buffer (25 mM Tris/HCl, pH 8.0, 137 mM NaCl, 2.7 mM KCl, 1 mM MgCl2, pH 8) in 96-well assay plates (Fisher scientific, #07-200-309) and were pre-incubated for 2 hours at room temperature in the presence of 125 μg/ml BSA and purified HDAC1 (BPS Bioscience, San Diego, Calif., #50051), HDAC2 (BPS Bioscience, #50053), or HDAC3/NcoR2 (BPS Bioscience, #50003) at concentrations of 1.25, 1.32, and 0.167 μg/mL, respectively. Following pre-incubation, Fluor-de-Lys™ substrate (Enzo Life Sciences, Plymouth Meeting, Pa., BML-KI104-0050) was added to a final concentration of 10 μM and plates were further incubated for 30 minutes at room temperature. The enzymatic reaction was stopped by addition of Trichostatin A (Sigma-Aldrich, St Louis, Mo., #T8552, final concentration: 100 nM) and trypsin (MP Biomedicals, Solon, Ohio, #02101179) was added to reach a final concentration of 100 μg/mL. After a 15 minute incubation at room temperature, fluorescence was recorded using a Spectramax M2 fluorometer (Molecular Devices, Sunnyvale, Calif.) with excitation at 365 nm and emission at 460 nm. IC50 values were calculated by using a sigmoidal dose-response (variable slope) equation in GraphPad Prism® 5 for Windows (GraphPad Software, La Jolla, Calif.). Results for selected compounds in the HDAC activity inhibition assay are presented in Table 5 (IC50 ranges: IA>20 μM, A<1 μM, 1<B<5 μM, 5<C<10 μM, 10<D<20 μM, ND: not determined).
# HDAC3/NcoR2 = HDAC3/NcoR2 (Homo sapiens (Human), UniProt O15379); assay: HDAC enzyme inhibition assay (Fluor-de-Lys), HDAC3/NcoR2; assay type: biochemical; conditions: HDAC3/NcoR2, 2 hours pre-incubation
# Sequence of HDAC3/NcoR2 (O15379 whole entry): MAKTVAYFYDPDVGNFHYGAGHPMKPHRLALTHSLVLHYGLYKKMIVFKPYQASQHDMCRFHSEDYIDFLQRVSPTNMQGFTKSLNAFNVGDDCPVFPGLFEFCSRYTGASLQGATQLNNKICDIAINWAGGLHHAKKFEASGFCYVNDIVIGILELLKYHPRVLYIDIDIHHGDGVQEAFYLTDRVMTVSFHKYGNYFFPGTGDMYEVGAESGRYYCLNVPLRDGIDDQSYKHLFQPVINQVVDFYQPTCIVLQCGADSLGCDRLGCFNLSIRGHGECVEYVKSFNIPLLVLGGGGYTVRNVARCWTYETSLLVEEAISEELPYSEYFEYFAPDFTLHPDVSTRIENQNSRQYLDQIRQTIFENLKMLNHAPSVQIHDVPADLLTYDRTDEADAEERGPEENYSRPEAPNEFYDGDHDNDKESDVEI
# Sequence of HDAC3/NcoR2 (Q9Y618 395-489 partner): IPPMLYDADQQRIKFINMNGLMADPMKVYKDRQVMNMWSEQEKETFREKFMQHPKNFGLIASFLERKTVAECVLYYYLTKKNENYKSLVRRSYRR
# Method: as §1
# [1] = tested on: GM 15850 (lymphoblastoid cells line) cells; assay: In-cell deacetylase inhibition assay (DAC assay); assay type: cell-based; conditions: Homo sapiens, GM15850; GM 15850 cells, 4 h incubation
# Method: GM 15850 (lymphoblastoid cells line) cells were seeded in 96-well plates at an appropriate density (100,000 cells/well) in 90 μL, RPMI1640 medium containing 10% v/v fetal bovine serum (FBS), 1% v/v penicillin/streptomycin, and 1% v/v L-glutamine. Compound dilutions were made in 100% DMSO followed by parallel dilution in media with 2% DMSO. 10 μl of the compound dilutions were added to the cells to achieve the desired concentrations. The final concentration of DMSO in each well was 0.2%. The cells were incubated for 4 h at 37° C. with 5% CO2. After incubation, the cells were centrifuged down and the supernatant was removed. The cell pellets were washed with 100 μL, phosphate-buffered saline (PBS) and then lysed with 45 μL, lysis buffer (HDAC assay buffer at pH 8.0 (25 mM Tris/HCl, 137 mM NaCl, 2.7 mM KCl, 1 mM MgCl2)+1% v/v Igepal CA-630). To initiate the reaction, the HDAC substrate KI-104 (Enzo Life Sciences, Farmingdale, N.Y.) was added to a final concentration of 50 μM. The reaction was stopped after 30 min incubation by addition of 50 μL, developer (6 mg/mL trypsin in HDAC assay buffer). The reaction was allowed to develop for 30 min at room temperature and the fluorescence signal was detected using a fluorometer (Spectramax M2, Molecular Devices, Sunnyvale, Calif.) with excitation and emission wavelengths of 360 nm and 470 nm respectively. The data was fitted to a sigmoidal dose response equation with variable slope in GraphPad Prism 5.0 (GraphPad Software, La Jolla, Calif.) to determine IC50. Bottom and top of the curve were fixed to the average fluorescence response of control wells with no cells and cells but no compound respectively. IC50's are reported in Table 5, where A stands for IC50 less than 1 μM, B between 1 and 5 μM, C from 5 to 10 μM, D from 10 to 20 μM, and IA for IC50 above 20 μM.
# Sequence of HDAC1 (Q13547 whole entry): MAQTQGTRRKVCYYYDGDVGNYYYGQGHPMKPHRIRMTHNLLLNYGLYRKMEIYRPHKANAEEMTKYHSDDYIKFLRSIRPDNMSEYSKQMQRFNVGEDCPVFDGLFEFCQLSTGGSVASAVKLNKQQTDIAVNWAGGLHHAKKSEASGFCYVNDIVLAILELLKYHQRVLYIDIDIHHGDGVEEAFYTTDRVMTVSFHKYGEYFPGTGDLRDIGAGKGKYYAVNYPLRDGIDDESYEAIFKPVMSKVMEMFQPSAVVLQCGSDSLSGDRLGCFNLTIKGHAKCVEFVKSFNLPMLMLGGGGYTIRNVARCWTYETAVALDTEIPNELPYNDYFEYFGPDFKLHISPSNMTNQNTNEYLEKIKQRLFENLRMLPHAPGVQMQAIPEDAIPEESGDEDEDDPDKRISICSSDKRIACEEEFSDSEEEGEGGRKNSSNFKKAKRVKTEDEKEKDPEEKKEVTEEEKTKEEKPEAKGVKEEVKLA
IC50 (HDAC1) [nM],IC50 (HDAC3/NcoR2) [nM],IC50 [1] [nM],Structure (SMILES)
< 1000,< 1000,< 1000,Nc1ccccc1NC(=O)c1ccc2c(cnn2Cc2cccnc2)c1 [Compound A1]
< 1000,< 1000,< 1000,Nc1ccccc1NC(=O)c1ccc2c(cnn2Cc2ccccc2)c1 [Compound A2]
< 1000,< 1000,< 1000,Cn1cc(Cn2ncc3cc(C(=O)Nc4ccccc4N)ccc32)cn1 [Compound A3]
< 1000,< 1000,< 1000,"Nc1ccccc1NC(=O)c1ccc2c(cnn2Cc2cncc(F)c2)c1 [Compound A4, N-(2-aminophenyl)-1-((5-fluoropyridin-3-yl)methyl)-1H-indazole-5-carboxamide]"
< 1000,< 1000,< 1000,Cc1ccc(Cn2ncc3cc(C(=O)Nc4ccccc4N)ccc32)c(C)n1 [Compound A5]
< 1000,< 1000,1000 to 5000,Nc1cc(F)ccc1NC(=O)c1ccc2c(cnn2Cc2cccnc2)c1 [Compound A6]
< 1000,< 1000,1000 to 5000,Nc1cc(F)ccc1NC(=O)c1ccc2c(cnn2Cc2cncc(F)c2)c1 [Compound A7]
< 1000,< 1000,1000 to 5000,Cc1ccc(Cn2ncc3cc(C(=O)Nc4ccc(F)cc4N)ccc32)c(C)n1 [Compound A8]
< 1000,< 1000,–,Nc1ccccc1NC(=O)c1ccc2c(cnn2Cc2ccc(F)c(F)c2)c1 [Compound A9]
1000 to 5000,< 1000,> 20000,Nc1cc(F)ccc1NC(=O)c1ccc2c(cnn2CC2CC2)c1 [Compound A12]
< 1000,< 1000,< 1000,Nc1ccccc1NC(=O)c1ccc2nn(Cc3cccnc3)cc2c1 [Compound A13]
< 1000,< 1000,< 1000,"Nc1ccccc1NC(=O)c1ccc2nn(Cc3cncc(F)c3)cc2c1 [Compound A14, N-(2-aminophenyl)-2-((5-fluoropyridin-3-yl)methyl)-2H-indazole-5-carboxamide]"
< 1000,< 1000,< 1000,Cc1ccc(Cn2cc3cc(C(=O)Nc4ccccc4N)ccc3n2)c(C)n1 [Compound A15]
